Values joined by “and” are separate entries in the source; they are usually repeats but may differ in a detail not shown here. Identical values can stand only once. Like-named read-outs stand apart in the source and are kept apart here.
Key:
[1] = Dog single-dose IV and oral pharmacokinetics; assay type: in vivo; details: for AUC(0-t): read-out: AUC0-t(last); for half-life: read-out: t1/2,z (converted)
Procedure: Pharmacokinetic Report for the study No. 0320-2007
Fexinidazole was given as IV and oral administrations to male Beagle dogs according to the […]
Dog ID Route Dose Formulation
IV dose was administered via the radial vein, the oral dose was administered by gastric […]
gavage. A washout period of […] was allowed between the IV (Day 1) and oral (Day 12) […]
4.2. Sample Collection and Handling
Blood was withdrawn from jugular vein and collected in heparinized plastic tubes kept on an […]
ice/water bath, then centrifuged at 1200g for 10 minutes at 4°C. Three aliquots of the […]
separated plasma (about 0.2 mL) was stored at -80°C until analysis for Fexinidazole and its […]
sulphone and sulphoxide metabolites. Blood was taken at pre-dose and 0.083 (5 minutes), […]
4.3. Bioanalytical Method
Plasma concentrations of Fexinidazole and its sulphone and sulphoxide metabolites were […]
determined by LC-MS-MS method following plasma protein precipitation. The lower limit […]
of quantification of the bioanalytical method was 5 ng/mL for all analytes. Bioanalytical data […]
Details of the bioanalytical method used are reported in Appendix 2 and analytical […]
performances of calibration standards are reported in Appendix 3.
4.4. Pharmacokinetic Calculations
Pharmacokinetic evaluations of Fexinidazole and sulphone and sulphoxide metabolites were […]
For the calculations, the pre-dose concentrations of Fexinidazole were set equal to C0.083 […]
after IV administration, whilst the pre-dose concentrations of Fexinidazole after oral […]
administration and the pre-dose concentrations of the metabolites after both doses were set […]
Nerviano Medical Sciences
After IV and oral dosing, Cmax (C0.083 for Fexinidazole after IV dosing) and tmax of each […]
concentration. After both doses, for each compound, the area under plasma concentration vs. […]
last detectable concentration. The half-life of the terminal phase, t1/2,z, was determined by […]
linear regression analysis of the natural-log concentration vs. time curve, where t1/2,z = […]
ln(2)/slope of the regression line. […]
infinite time, AUC0-∞, was determined as
AUC0- ∞ = AUC0 − t(last) + Ct(last)⋅ […]
The fraction of AUC0-∞ accounted for by the extrapolated area under the curve was […]
%EXTt (last)− 0∞=100⋅AUCt(last)−∞
After IV dosing, plasma clearance and volume of distribution at steady state of Fexinidazole […]
were calculated as follows:
Vss = CL⋅MRT, where MRT is the mean residence time.
Absolute bioavailability of Fexinidazole was calculated from the ratio of individual oral to […]
IV dose-normalized AUC0-t(last) and AUC0-∞ values.
After both doses, Cmax and AUC values of each compound were also normalized to a 1 […]
pharmacokinetic parameters sorted by compound and route of dosing.
Plasma concentrations and pharmacokinetic parameters of each compound were reported to […]
three significant figures.
5.1.1. Clinical and Physical Examinations
Individual clinical signs are reported in Appendix 4. […]
treatments with Fexinidazole. No meaningful clinical signs were recorded during wash out

[2] = Half-life after oral treatment across species; assay type: in vivo; details: mouse, rat, dog, plasma, mice, rats and dogs
[3] = dog, oral 10 mg/kg vs IV 1 mg/kg
[4] = dog, plasma, fexinidazole 1 mg/kg IV, male Beagle dogs, read-out: Cmax (C0.083 for parent)
[5] = male, Beagle, dog, plasma, fexinidazole 1 mg/kg IV
[6] = male, Beagle, dog, plasma, fexinidazole 10 mg/kg oral
[7] = male, Beagle, dog, plasma, fexinidazole 10 mg/kg oral, read-out: Cmax

Row | SMILES | clinical signs ([1]; 1 mg/kg IV and 10 mg/kg oral) | F% AUC0-t(last) [1, 3] | F% AUC0-∞ [1, 3] [%] | Cmax [1, 4] [ng/mL] | clearance ([1]; male, Beagle, dog, plasma, 1 mg/kg IV) [mL/min/kg] | Vd ([1]; male, Beagle, dog, plasma, 1 mg/kg IV, read-out: Vss) [L/kg] | AUC(0-inf) [1, 5] [ng·h/mL] | AUC(0-t) [1, 5] [ng·h/mL] | half-life [1, 5] [h] | AUC(0-inf) [1, 6] [ng·h/mL] | Tmax [1, 6] [h] | AUC(0-t) [1, 6] [ng·h/mL] | Cmax [1, 7] [ng/mL] | half-life [1, 6] [h] | half-life [2] [h] | Tmax [1, 5] [h]
1 | CSc1ccc(OCc2ncc([N+](=O)[O-])n2C)cc1 [Fexinidazole, 1-methyl-2-((p-(methylthio)phenoxy)methyl)-5-nitroimidazole] | No significant treatment related clinical signs | 10% and 9.60 ±4.32% | 14.1 | 320 ± 136 | 273 | 3.26 | 70.6 ± 33.8 | 66.9 ± 31.8 | 0.406 | 85.3 ± 1.27 | 0.667 | 57.2 ± 13.4 | 24.2 ± 5.86 | 1.93 | 1 to 3 | 
2 | Cn1c([N+](=O)[O-])cnc1COc1ccc([S+](C)[O-])cc1 (stereo not drawn) [Fexinidazole sulfoxide] |  |  |  | 763 ± 45.3 |  |  | 1520 ± 208 | 1480 ± 197 | 1.16 | 8780 ± 895 | 1.17 | 8560 ± 767 | 1900 ± 186 | 5.72 | 2 to 7 | 0.194
3 | Cn1c([N+](=O)[O-])cnc1COc1ccc(S(C)(=O)=O)cc1 [Fexinidazole sulfone] |  |  |  | 681 ± 162 |  |  |  | 5270 ± 1230 |  |  | 6.67 | 44700 ± 3810 | 3260 ± 762 |  | ≤ 24 | 4.67
